The text below walks through data of ChEMBL document CHEMBL1201862, “PubChem BioAssay data set” (2004).

Among the test systems are 786-0; ACHN; HCT-116; MOLT-4; Malme-3M; NCI-H226; NCI-H460; NCI-H522; OVCAR-3; OVCAR-5; OVCAR-8; SK-MEL-5; SR; UACC-257; UACC-62; CAKI-1.
Assay in all cases: NCI anticancer screen, dose series, 48 h

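Assay format: 96-well plates, 48-hour exposure. GI50 marks 50% less growth.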 Active and inactive are the calls of the source. Cut-off read from the data, not from the text of the source: active = GI50 up to about 1.1 µM and inactive = higher.

In the case of `O=C(O)CCC(=O)Oc1ccc(O)c2c1CCCC2=O`, the GI50 in the experiment with 786-0, in the experiment on ACHN, with HCT-116, in the experiment with MOLT-4, with Malme-3M and in the experiment on NCI-H226 was > 100 µM (inactive) each time. Also, the GI50 was > 100 µM (inactive) in the experiment on NCI-H460; 66.5 µM (inactive) in the experiment on NCI-H522; > 100 µM (inactive) in the experiment with OVCAR-3; > 100 µM (inactive) in the experiment on OVCAR-5; > 100 µM (inactive) in the experiment with OVCAR-8; 49.8 µM (inactive) in the experiment on SK-MEL-5. Also, the GI50 in the experiment on SR was 64 µM (inactive); in the experiment with UACC-257, > 100 µM (inactive); in the experiment on UACC-62, 69.7 µM (inactive).
With `Cc1[nH]c2ccccc2c1C(=O)CC1(O)C(=O)Nc2ccccc21` (centres undefined), the GI50 in the experiment on 786-0, with ACHN, with CAKI-1, in the experiment with HCT-116, in the experiment on MOLT-4 and in the experiment on NCI-H226 was > 100 µM (inactive) each time. Moreover, the GI50 in the experiment with NCI-H460, with OVCAR-5, in the experiment with SK-MEL-5, with SR, in the experiment with UACC-257 and in the experiment on UACC-62 was > 100 µM (inactive) throughout.
As to `C[C@H]1CC[P+](Cc2ccccc2)(c2ccccc2)C1` (some centres undefined), the GI50 in the experiment on 786-0 was > 100 µM (inactive); in the experiment on ACHN, > 100 µM (inactive); in the experiment on HCT-116, > 100 µM (inactive); in the experiment on MOLT-4 it was > 100 µM (inactive); in the experiment on Malme-3M it was 30.3 µM (inactive); with NCI-H226, > 100 µM (inactive). The GI50 was > 100 µM (inactive) in the experiment on NCI-H460; 76.7 µM (inactive) in the experiment on NCI-H522; 41.2 µM (inactive) with OVCAR-3; > 100 µM (inactive) with OVCAR-5; > 100 µM (inactive) with OVCAR-8; 22.2 µM (inactive) with SK-MEL-5. Moreover, the GI50 was 90.4 µM (inactive) with SR, 25.7 µM (inactive) in the experiment with UACC-257 and 76.6 µM (inactive) with UACC-62.
Regarding `COc1ccc2c(c1)Oc1cc(O)ccc1[C@H]2c1ccccc1C(=O)NC(C)c1ccccc1` (some centres undefined), the GI50 in the experiment with 786-0 is 17.9 µM (inactive); with ACHN, 13.2 µM (inactive); with CAKI-1 it was 17.3 µM (inactive); with HCT-116, 13.6 µM (inactive); with MOLT-4, 9.73 µM (inactive); with Malme-3M, 20.4 µM (inactive). The GI50 was 20.7 µM (inactive) with NCI-H226; 13.3 µM (inactive) in the experiment with NCI-H460; 12 µM (inactive) in the experiment on NCI-H522; 12.3 µM (inactive) with OVCAR-3; 15.3 µM (inactive) in the experiment on OVCAR-5; 16 µM (inactive) with OVCAR-8. In addition, the GI50 with SK-MEL-5 was 15.1 µM (inactive); in the experiment with UACC-257, 17.4 µM (inactive); in the experiment with UACC-62, 12.1 µM (inactive).
`Cc1ccc(-n2nc(C(OC3OC(CO)C(O)C(O)C3O)C(O)CO)c3nc4cc(C)c(C)cc4nc32)cc1` (centres undefined): the GI50 with 786-0, with ACHN, with HCT-116, in the experiment with MOLT-4, with Malme-3M and with NCI-H460 was > 100 µM (inactive) in each case. The GI50 in the experiment on NCI-H522, in the experiment on OVCAR-3, in the experiment on OVCAR-5, in the experiment with OVCAR-8, in the experiment on UACC-257 and in the experiment with UACC-62 was > 100 µM (inactive) throughout.
`CCOC(=O)C1CC(=O)C=C2CCCCC21` (centres undefined): the GI50 in the experiment on 786-0, in the experiment with ACHN, with CAKI-1, in the experiment with HCT-116, in the experiment with MOLT-4 and in the experiment with Malme-3M was > 100 µM (inactive) in each case. In addition, the GI50 in the experiment on NCI-H460, in the experiment with NCI-H522, in the experiment with OVCAR-3, in the experiment on OVCAR-5, in the experiment on OVCAR-8 and with SK-MEL-5 was > 100 µM (inactive) each time. Besides, the GI50 in the experiment with UACC-257 and in the experiment with UACC-62 was > 100 µM (inactive) each time.
Turning to `CC1=C2[C@@H](c3ccccc3)C3C=CC2(c2ccccc23)N(C(=O)Nc2cccc3ccccc23)C1=O` (some centres undefined), the GI50 in the experiment on 786-0, with ACHN, in the experiment on CAKI-1, in the experiment with HCT-116, in the experiment with MOLT-4 and with Malme-3M was > 100 µM (inactive) each time. The GI50 in the experiment on OVCAR-3, with OVCAR-5, in the experiment on OVCAR-8, with SK-MEL-5, with SR and in the experiment on UACC-257 was > 100 µM (inactive) in each case. In addition, the GI50 in the experiment with UACC-62 was > 100 µM (inactive).
As to `Cn1ccnc1CCc1ccc(Cl)cc1Cl`, the GI50 in the experiment on 786-0, in the experiment with ACHN, in the experiment on CAKI-1, in the experiment with HCT-116, in the experiment on MOLT-4 and with Malme-3M was > 100 µM (inactive) each time. The GI50 with NCI-H226, in the experiment with NCI-H460, in the experiment with NCI-H522, in the experiment on OVCAR-3, with OVCAR-5 and in the experiment with OVCAR-8 was > 100 µM (inactive) throughout. Also, the GI50 in the experiment on UACC-257 and in the experiment on UACC-62 was > 100 µM (inactive) each time.
Consider `C[C@]12CCC(=O)C=C1CC[C@@H]1[C@@H]2C(=O)C[C@@]2(C)[C@H]1CC[C@]2(O)C(=O)CO` [CORTISONE], for which the GI50 in the experiment with 786-0, in the experiment on ACHN, in the experiment with CAKI-1, with HCT-116, in the experiment with MOLT-4 and in the experiment on Malme-3M was > 100 µM (inactive) in each case. For the same compound, the GI50 in the experiment on NCI-H226, with NCI-H460, with NCI-H522, with OVCAR-3, with OVCAR-8 and in the experiment on SK-MEL-5 was > 100 µM (inactive) in each case. The GI50 with SR was > 100 µM (inactive).
Consider `N#CC(/C(CCC(=O)Nc1ccc(Cl)cc1)=N/NC(=O)c1cc2ccccc2cc1O)c1ccccc1` (centres undefined), for which the GI50 is 38.3 µM (inactive) with 786-0; 24.9 µM (inactive) with ACHN; 31.3 µM (inactive) in the experiment with HCT-116; 22.2 µM (inactive) with MOLT-4; 50 µM (inactive) in the experiment with Malme-3M; 42.2 µM (inactive) in the experiment with NCI-H226. In addition, the GI50 with NCI-H460 is 30.7 µM (inactive); with OVCAR-3, 30.5 µM (inactive); in the experiment on OVCAR-5, 22.8 µM (inactive); in the experiment with OVCAR-8, 32.2 µM (inactive); in the experiment on SK-MEL-5, 19.4 µM (inactive); with UACC-257, 30.7 µM (inactive). The GI50 with UACC-62 is 25.1 µM (inactive).
Take `COc1ccc2nc3ccccc3c(NCCCCCCN(C)CCCl)c2c1`: the GI50 in the experiment with 786-0 was 0.177 µM (active); with ACHN it was 0.239 µM (active); in the experiment with CAKI-1, 0.314 µM (active); in the experiment on HCT-116, 0.0887 µM (active); with MOLT-4, < 0.01 µM (active); in the experiment on Malme-3M, 0.82 µM (active). Besides, the GI50 with NCI-H226 was 0.104 µM (active); in the experiment with NCI-H460, 0.0569 µM (active); in the experiment with NCI-H522 it was 0.242 µM (active); in the experiment with OVCAR-3 it was 1.19 µM (inactive); with OVCAR-5, 1.11 µM (active); with OVCAR-8 it was 0.296 µM (active). Also, the GI50 was 0.918 µM (active) with SK-MEL-5, 1.41 µM (inactive) in the experiment with UACC-257 and 0.307 µM (active) in the experiment on UACC-62.
Consider `COC(=O)C1=NC(=S)NC(c2ccccc2)C1c1nc2ccccc2s1` (centres undefined), for which the GI50 with 786-0, in the experiment on ACHN, in the experiment on CAKI-1, in the experiment on HCT-116, in the experiment on MOLT-4 and in the experiment on Malme-3M was > 100 µM (inactive) each time. Also, the GI50 with NCI-H226, in the experiment with NCI-H460, in the experiment with OVCAR-3, with OVCAR-8, with SK-MEL-5 and in the experiment on SR was > 100 µM (inactive) throughout. For the same compound, the GI50 with UACC-257 and in the experiment with UACC-62 was > 100 µM (inactive) in each case.
`O=c1[nH]c(=O)n([C@H]2C[C@@H](CO)[C@@H](O)C2)cc1I`: the GI50 with 786-0, in the experiment on ACHN, in the experiment with CAKI-1, in the experiment on HCT-116, in the experiment on MOLT-4 and with Malme-3M was > 100 µM (inactive) each time. The GI50 with NCI-H226, in the experiment with NCI-H460, in the experiment with NCI-H522, in the experiment with OVCAR-3, with OVCAR-5 and with OVCAR-8 was > 100 µM (inactive) in each case. Moreover, the GI50 with SK-MEL-5, in the experiment with UACC-257 and with UACC-62 was > 100 µM (inactive) in each case.
As to `CC(=O)CC(=O)OC1CC(C)CCC1C(C)C` (centres undefined), the GI50 in the experiment with 786-0 is > 100 µM (inactive); with ACHN, > 100 µM (inactive); in the experiment on CAKI-1, > 100 µM (inactive); with HCT-116, 13.5 µM (inactive); with MOLT-4, 17.3 µM (inactive); with Malme-3M it was 40.7 µM (inactive). The GI50 was 53.3 µM (inactive) with NCI-H460; 39.7 µM (inactive) with NCI-H522; 26 µM (inactive) in the experiment on OVCAR-3; > 100 µM (inactive) with OVCAR-5; 72.8 µM (inactive) in the experiment on OVCAR-8; 42.2 µM (inactive) in the experiment with SK-MEL-5. Also, the GI50 with UACC-257 is 77.4 µM (inactive); in the experiment on UACC-62, 69.2 µM (inactive).
